Measured values from publication PMC7280082 (Acta Pharmaceutica Sinica. B, 2019).

Legend:
[1] = system: WT HIV-1 (IIIB); assay: microbe, parasite or virus in culture; type: cell-based; settings: for EC50: Human immunodeficiency virus 1, IIIB, MT4, read-out: EC50 IIIB; for SI IIIB: ratio of CC50/EC50
[2] = system: HIV-2 strain (ROD); assay: Anti-HIV-2; type: cell-based; settings: for EC50: Human immunodeficiency virus 2, MT4, read-out: EC50 ROD; for SI ROD: ratio of CC50/EC50
[3] = system: HIV-1 L100I mutant strain; assay: microbe, parasite or virus in culture; type: cell-based; settings: for SI L100I: CC50/EC50; for EC50: Human immunodeficiency virus 1, MT4, read-out: EC50 L100I; for RF L100I: ratio of EC50 (resistant viral strain)/EC50 (wild-type viral strain)
[4] = system: HIV-1 K103N mutant strain; assay: microbe, parasite or virus in culture; type: cell-based; settings: for SI K103N: CC50/EC50; for EC50: Human immunodeficiency virus 1, MT4, read-out: EC50 K103N; for RF K103N: ratio of EC50 (resistant viral strain)/EC50 (wild-type viral strain)
[5] = system: HIV-1 Y181C mutant strain; assay: microbe, parasite or virus in culture; type: cell-based; settings: for SI Y181C: CC50/EC50; for EC50: Human immunodeficiency virus 1, MT4, read-out: EC50 Y181C; for RF Y181C: ratio of EC50 (resistant viral strain)/EC50 (wild-type viral strain)
[6] = system: HIV-1 Y188L mutant strain; assay: microbe, parasite or virus in culture; type: cell-based; settings: for SI Y188L: CC50/EC50; for EC50: Human immunodeficiency virus 1, MT4, read-out: EC50 Y188L; for RF Y188L: ratio of EC50 (resistant viral strain)/EC50 (wild-type viral strain)
[7] = system: HIV-1 E138K mutant strain; assay: microbe, parasite or virus in culture; type: cell-based; settings: for SI E138K: CC50/EC50; for EC50: Human immunodeficiency virus 1, MT4, read-out: EC50 E138K; for RF E138K: ratio of EC50 (resistant viral strain)/EC50 (wild-type viral strain)
[8] = system: HIV-1 F227L + V106A double-mutant strain; assay: microbe, parasite or virus in culture; type: cell-based; settings: for SI F227L + V106A: CC50/EC50; for EC50: Human immunodeficiency virus 1, MT4, read-out: EC50 F227L + V106A; for RF F227L + V106A: ratio of EC50 (resistant viral strain)/EC50 (wild-type viral strain)
[9] = system: HIV-1 RES056 (K103N + Y181C) double-mutant strain; assay: microbe, parasite or virus in culture; type: cell-based; settings: for SI RES056: CC50/EC50; for EC50: Human immunodeficiency virus 1, MT4, read-out: EC50 RES056; for RF RES056: ratio of EC50 (resistant viral strain)/EC50 (wild-type viral strain)
[10] = target: WT HIV-1 RT (Human immunodeficiency virus type 1 group M subtype B, UniProt P03366); assay: Recombinant HIV-1 RT inhibitory assay; type: biochemical
[11] = Cytotoxicity in mock-infected MT-4 cell cultures, MTT method; settings: human, mock-infected MT-4 cells

Row | Structure (SMILES) | EC50 [1] [nM] | SI IIIB [1] | EC50 [2] [nM] | SI L100I [3] | EC50 [3] [nM] | RF L100I [3] | SI K103N [4] | EC50 [4] [nM] | RF K103N [4] | EC50 [5] [nM] | RF Y181C [5] | EC50 [6] [nM] | RF Y188L [6] | EC50 [7] [nM] | RF E138K [7] | EC50 [8] [nM] | RF F227L + V106A [8] | EC50 [9] [nM] | RF RES056 [9] | CC50 at 5 days [11] [nM] | further results
1 | Cc1cc(-c2cccc(C#N)c2)cc(C)c1Oc1nc(NC2CCN(Cc3ccc(S(N)(=O)=O)cc3)CC2)nc2ccsc12 [Compound 27, 4-((4-((4-((3′-Cyano-3,5-dimethyl-[1,1′-biphenyl]-4-yl)oxy)thieno[3,2-d]pyrimidin-2-yl)amino)piperidin-1-yl)methyl)benzenesulfonamide] | 13.3 ± 2.6 | 1054 | 4920 ± 2250 | 569 | 24.6 ± 4.97 | 1.9 | 1639 | 8.56 ± 1.69 | 0.6 | 32.4 ± 4.07 | 2.4 | 54.7 ± 2.26 | 4.1 | 34.8 ± 9.28 | 2.6 | 49.2 ± 8.26 | 3.7 | 347 ± 75.9 | 26.1 | 14000 ± 8280 | SI ROD [2]: 3; SI Y181C [5]: 432; SI Y188L [6]: 256; SI E138K [7]: 402; SI F227L + V106A [8]: 285; SI RES056 [9]: 40; IC50 [10]: 207 ± 6 nM
2 | Cc1cc(-c2cccs2)cc(C)c1Oc1nc(NC2CCN(Cc3ccc(C(N)=O)cc3)CC2)nc2ccsc12 [Compound 16, 4-((4-((4-(2,6-Dimethyl-4-(thiophen-2-yl)phenoxy)thieno[3,2-d]pyrimidin-2-yl)amino)piperidin-1-yl)methyl)benzamide] | 203 ± 51.5 | ≥101 | > 20500 | ≥ 28 | 731 ± 274 | 3.6 | ≥ 111 | 184 ± 90.2 | 0.9 | 731 ± 198 | 3.6 | 619 ± 3.59 | 3.0 | 662 ± 58.4 | 3.3 | 1090 ± 226 | 5.4 | 10000 | 49.2 | ≥ 20500 | SI Y181C [5]: ≥ 28; SI Y188L [6]: ≥ 33; SI E138K [7]: ≥ 31; SI F227L + V106A [8]: ≥ 19; SI RES056 [9]: ≥ 2; IC50 [10]: 595 ± 44 nM
3 | Cc1cc(-c2ccco2)cc(C)c1Oc1nc(NC2CCN(Cc3ccc(C(N)=O)cc3)CC2)nc2ccsc12 [Compound 12, 4-((4-((4-(4-(Furan-2-yl)-2,6-dimethylphenoxy)thieno[3,2-d]pyrimidin-2-yl)amino)piperidin-1-yl)methyl)benzamide] | 93.3 ± 82.8 | 310 | 25300 | 70 | 414 ± 37.9 | 4.4 | 224 | 129 ± 5.87 | 1.4 | 511 ± 77.2 | 5.5 | 307 ± 58.2 | 3.3 | 287 ± 4.98 | 3.1 | 1110 ± 269 | 11.9 | 2900 ± 119 | 31.1 | 28900 ± 15600 | SI ROD [2]: 1; SI Y181C [5]: 57; SI Y188L [6]: 94; SI E138K [7]: 101; SI F227L + V106A [8]: 26; SI RES056 [9]: 10; IC50 [10]: 901 ± 45 nM
4 | O=C1Nc2ccc(Cl)cc2[C@@](C#CC2CC2)(C(F)(F)F)O1 [EFV, efavirenz, reference compound] | 5.25 ± 1.98 |  | > 5330 |  | 46.5 ± 9.11 |  |  | 111 ± 35.4 |  | 6.33 ± 1.06 |  | 306 ± 53.9 |  |  |  | 268 ± 48.7 |  |  |  | > 6330 | 
5 | Cc1cc(C#N)cc(C)c1Oc1nc(Nc2ccc(C#N)cc2)nc(N)c1Br [ETR, Etravirine, reference compound] | 5.03 ± 1.68 |  | > 4590 |  | 6.35 ± 1.77 | 1.3 |  | 3.13 ± 0.42 | 0.6 | 12.2 ± 2.63 | 2.4 | 17.3 ± 5.53 | 3.5 | 8.07 ± 2.52 | 1.6 | 14.2 ± 5.14 | 2.8 | 42.5 ± 15.1 | 8.4 | > 4590 | 
